Assay: tests of the topical composition carried out on persons
Format: in vivo
Conditions: compared as hydrogel-soluble NSAID component at about 2-10% of the composition

COC(=O)c1ccccc1O [methyl salicylate]
efficacy of the non-steroidal anti-inflammatory agent within the inventive composition: most efficacious

— patent US20080193576A1, “Antiphlogistic and analgesic composition for topical use in a region of an animal locomotive system” (priority 2007, published 2008)
